From ChEMBL document CHEMBL2396621, “Design, synthesis and biological evaluation of 2-mercapto-3-phenethylquinazoline bearing anilide fragments as potential antitumor agents: molecular docking study” (2013)

What was measured:
Format in all cases: functional
KM12 = experiment: Cytotoxicity against human KM12 cells assessed as growth inhibition at 10 uM after 48 hrs by coulter counter analysis; settings: KM12, 48 h, read-out: GI
SK-MEL-28 = experiment: Cytotoxicity against human SK-MEL-28 cells assessed as growth inhibition at 10 uM after 48 hrs by coulter counter analysis; settings: SK-MEL-28, 48 h, read-out: GI
786-0 = experiment: Cytotoxicity against human 786-0 cells assessed as growth inhibition at 10 uM after 48 hrs by coulter counter analysis; settings: 786-0, 48 h, read-out: GI
T47D = experiment: Cytotoxicity against human T47D cells assessed as growth inhibition at 10 uM after 48 hrs by coulter counter analysis; settings: read-out: GI
A498 = experiment: Cytotoxicity against human A498 cells assessed as growth inhibition at 10 uM after 48 hrs by coulter counter analysis; settings: A498, 48 h, read-out: GI
UO-31 = experiment: Cytotoxicity against human UO31 cells assessed as growth inhibition at 10 uM after 48 hrs by coulter counter analysis; settings: UO-31, 48 h, read-out: GI
OVCAR-4 = experiment: Cytotoxicity against human OVCAR4 cells assessed as growth inhibition at 10 uM after 48 hrs by coulter counter analysis; settings: OVCAR-4, 48 h, read-out: GI
SK-OV-3 = experiment: Cytotoxicity against human SKOV3 cells assessed as growth inhibition at 10 uM after 48 hrs by coulter counter analysis; settings: SK-OV-3, 48 h, read-out: GI
HCT-116 = experiment: Cytotoxicity against human HCT116 cells assessed as growth inhibition at 10 uM after 48 hrs by coulter counter analysis; settings: HCT-116, 48 h, read-out: GI
RXF 393 = experiment: Cytotoxicity against human RXF393 cells assessed as growth inhibition at 10 uM after 48 hrs by coulter counter analysis; settings: RXF 393, 48 h, read-out: GI
OVCAR-8 = experiment: Cytotoxicity against human OVCAR8 cells assessed as growth inhibition at 10 uM after 48 hrs by coulter counter analysis; settings: OVCAR-8, 48 h, read-out: GI
M14 = experiment: Cytotoxicity against human M14 cells assessed as growth inhibition at 10 uM after 48 hrs by coulter counter analysis; settings: M14, 48 h, read-out: GI
NCI-H226 = experiment: Cytotoxicity against human NCI-H226 cells assessed as growth inhibition at 10 uM after 48 hrs by coulter counter analysis; settings: NCI-H226, 48 h, read-out: GI
COLO 205 = experiment: Cytotoxicity against human COLO205 cells assessed as growth inhibition at 10 uM after 48 hrs by coulter counter analysis; settings: COLO 205, 48 h, read-out: GI
IGROV-1 = experiment: Cytotoxicity against human IGROV1 cells assessed as growth inhibition at 10 uM after 48 hrs by coulter counter analysis; settings: IGROV-1, 48 h, read-out: GI
Malme-3M = experiment: Cytotoxicity against human MALME-3M cells assessed as growth inhibition at 10 uM after 48 hrs by coulter counter analysis; settings: read-out: GI
SF-539 = experiment: Cytotoxicity against human SF539 cells assessed as growth inhibition at 10 uM after 48 hrs by coulter counter analysis; settings: SF-539, 48 h, read-out: GI
Hs-578T = experiment: Cytotoxicity against human Hs578T cells assessed as growth inhibition at 10 uM after 48 hrs by coulter counter analysis; settings: read-out: GI
DU-145 = experiment: Cytotoxicity against human DU145 cells assessed as growth inhibition at 10 uM after 48 hrs by coulter counter analysis; settings: DU-145, 48 h, read-out: GI
SNB-75 = experiment: Cytotoxicity against human SNB75 cells assessed as growth inhibition at 10 uM after 48 hrs by coulter counter analysis; settings: SNB-75, 48 h, read-out: GI
NCI-H322M = experiment: Cytotoxicity against human NCI-H322M cells assessed as growth inhibition at 10 uM after 48 hrs by coulter counter analysis; settings: read-out: GI
MDA-MB-468 = experiment: Cytotoxicity against human MDA-MB-468 cells assessed as growth inhibition at 10 uM after 48 hrs by coulter counter analysis; settings: MDA-MB-468, 48 h, read-out: GI
A549 = experiment: Cytotoxicity against human A549 cells assessed as growth inhibition at 10 uM after 48 hrs by coulter counter analysis; settings: A549, 48 h, read-out: GI
MDA-MB-435 = experiment: Cytotoxicity against human MDA-MB-435 cells assessed as growth inhibition at 10 uM after 48 hrs by coulter counter analysis; settings: MDA-MB-435, 48 h, read-out: GI
HOP-62 = experiment: Cytotoxicity against human HOP62 cells assessed as growth inhibition at 10 uM after 48 hrs by coulter counter analysis; settings: HOP-62, 48 h, read-out: GI
NCI-H460 = experiment: Cytotoxicity against human NCI-H460 cells assessed as growth inhibition at 10 uM after 48 hrs by coulter counter analysis; settings: NCI-H460, 48 h, read-out: GI
NCI-H23 = experiment: Cytotoxicity against human NCI-H23 cells assessed as growth inhibition at 10 uM after 48 hrs by coulter counter analysis; settings: NCI-H23, 48 h, read-out: GI
SNB-19 = experiment: Cytotoxicity against human SNB19 cells assessed as growth inhibition at 10 uM after 48 hrs by coulter counter analysis; settings: SNB-19, 48 h, read-out: GI
UACC-62 = experiment: Cytotoxicity against human UACC62 cells assessed as growth inhibition at 10 uM after 48 hrs by coulter counter analysis; settings: UACC-62, 48 h, read-out: GI
SK-MEL-5 = experiment: Cytotoxicity against human SK-MEL-5 cells assessed as growth inhibition at 10 uM after 48 hrs by coulter counter analysis; settings: SK-MEL-5, 48 h, read-out: GI
BT-549 = experiment: Cytotoxicity against human BT549 cells assessed as growth inhibition at 10 uM after 48 hrs by coulter counter analysis; settings: BT-549, 48 h, read-out: GI
PC-3 = experiment: Cytotoxicity against human PC3 cells assessed as growth inhibition at 10 uM after 48 hrs by coulter counter analysis; settings: PC-3, 48 h, read-out: GI
[1] = Cytotoxicity against human EKVX cells assessed as growth inhibition at 10 uM after 48 hrs by coulter counter analysis; settings: read-out: GI
LOX IMVI = experiment: Cytotoxicity against human LOXIMVI cells assessed as growth inhibition at 10 uM after 48 hrs by coulter counter analysis; settings: read-out: GI
SN12C = experiment: Cytotoxicity against human SN12C cells assessed as growth inhibition at 10 uM after 48 hrs by coulter counter analysis; settings: read-out: GI
UACC-257 = experiment: Cytotoxicity against human UACC257 cells assessed as growth inhibition at 10 uM after 48 hrs by coulter counter analysis; settings: UACC-257, 48 h, read-out: GI
OVCAR-5 = experiment: Cytotoxicity against human OVCAR5 cells assessed as growth inhibition at 10 uM after 48 hrs by coulter counter analysis; settings: OVCAR-5, 48 h, read-out: GI

SMILES | inhibition of growth at 10 µM (KM12) | inhibition of growth at 10 µM (SK-MEL-28) | inhibition of growth at 10 µM (786-0) | inhibition of growth at 10 µM (T47D) | inhibition of growth at 10 µM (A498) | inhibition of growth at 10 µM (UO-31) | inhibition of growth at 10 µM (OVCAR-4) | inhibition of growth at 10 µM (SK-OV-3) | inhibition of growth at 10 µM (HCT-116) | inhibition of growth at 10 µM (RXF 393) | inhibition of growth at 10 µM (OVCAR-8) | inhibition of growth at 10 µM (M14) | inhibition of growth at 10 µM (NCI-H226) | inhibition of growth at 10 µM (COLO 205) | inhibition of growth at 10 µM (IGROV-1) | inhibition of growth at 10 µM (Malme-3M) | inhibition of growth at 10 µM (SF-539) | inhibition of growth at 10 µM (Hs-578T) | inhibition of growth at 10 µM (DU-145) | inhibition of growth at 10 µM (SNB-75) | further results
O=C(CSc1nc2ccccc2c(=O)n1CCc1ccccc1)Nc1cc(Cl)ccc1C(=O)O | < 10% | < 10% | < 10% | < 10% | 10% | 18% | < 10% | < 10% | < 10% | < 10% | < 10% | < 10% | < 10% | < 10% | < 10% | < 10% | < 10% | < 10% | < 10% | 20% | inhibition of growth at 10 µM (NCI-H322M): < 10%; inhibition of growth at 10 µM (MDA-MB-468): < 10%; inhibition of growth at 10 µM (A549): < 10%; inhibition of growth at 10 µM (MDA-MB-435): < 10%; inhibition of growth at 10 µM (HOP-62): < 10%; inhibition of growth at 10 µM (NCI-H460): < 10%; inhibition of growth at 10 µM (NCI-H23): < 10%; inhibition of growth at 10 µM (SNB-19): < 10%; inhibition of growth at 10 µM (UACC-62): < 10%; inhibition of growth at 10 µM (SK-MEL-5): < 10%; inhibition of growth at 10 µM (BT-549): 10%; inhibition of growth at 10 µM (PC-3): < 10%; inhibition of growth at 10 µM [1]: 20%; inhibition of growth at 10 µM (LOX IMVI): < 10%; inhibition of growth at 10 µM (SN12C): < 10%; inhibition of growth at 10 µM (UACC-257): < 10%; inhibition of growth at 10 µM (OVCAR-5): < 10%
COc1ccc(NC(=O)CSc2nc3ccccc3c(=O)n2CCc2ccccc2)cc1 | 16% | 11% | < 10% | < 10% | < 10% | < 10% | < 10% | 25% | 13% | 21% | 40% | 25% | < 10% | < 10% | 18% | 40% | 10% | 49% | < 10% | 72% | inhibition of growth at 10 µM (NCI-H322M): 19%; inhibition of growth at 10 µM (MDA-MB-468): 13%; inhibition of growth at 10 µM (A549): 25%; inhibition of growth at 10 µM (MDA-MB-435): 10%; inhibition of growth at 10 µM (HOP-62): 52%; inhibition of growth at 10 µM (NCI-H460): 25%; inhibition of growth at 10 µM (NCI-H23): < 10%; inhibition of growth at 10 µM (SNB-19): 41%; inhibition of growth at 10 µM (UACC-62): 13%; inhibition of growth at 10 µM (SK-MEL-5): 10%; inhibition of growth at 10 µM (BT-549): 10%; inhibition of growth at 10 µM (PC-3): < 10%; inhibition of growth at 10 µM [1]: 25%; inhibition of growth at 10 µM (LOX IMVI): < 10%; inhibition of growth at 10 µM (SN12C): < 10%; inhibition of growth at 10 µM (UACC-257): 14%; inhibition of growth at 10 µM (OVCAR-5): < 10%
O=C(CSc1nc2ccccc2c(=O)n1CCc1ccccc1)NCc1ccccc1 | < 10% | 12% | 15% | 20% | < 10% | 33% | 13% | 14% | 27% | 16% | 40% | 14% | 13% | < 10% | 39% | 14% | 38% | 37% | 13% | 38% | inhibition of growth at 10 µM (NCI-H322M): 26%; inhibition of growth at 10 µM (MDA-MB-468): < 10%; inhibition of growth at 10 µM (A549): 17%; inhibition of growth at 10 µM (MDA-MB-435): 19%; inhibition of growth at 10 µM (HOP-62): 36%; inhibition of growth at 10 µM (NCI-H460): 29%; inhibition of growth at 10 µM (NCI-H23): 10%; inhibition of growth at 10 µM (SNB-19): 17%; inhibition of growth at 10 µM (UACC-62): 29%; inhibition of growth at 10 µM (SK-MEL-5): 22%; inhibition of growth at 10 µM (BT-549): < 10%; inhibition of growth at 10 µM (PC-3): 29%; inhibition of growth at 10 µM [1]: 25%; inhibition of growth at 10 µM (LOX IMVI): 17%; inhibition of growth at 10 µM (SN12C): 20%; inhibition of growth at 10 µM (UACC-257): < 10%; inhibition of growth at 10 µM (OVCAR-5): < 10%
O=C(CSc1nc2ccccc2c(=O)n1CCc1ccccc1)Nc1ccccc1 | < 10% | < 10% | < 10% | 13% | 11% | < 10% | < 10% | 14% | 15% | < 10% | < 10% | 10% | < 10% | < 10% | < 10% | < 10% | < 10% | < 10% | < 10% | 12% | inhibition of growth at 10 µM (NCI-H322M): < 10%; inhibition of growth at 10 µM (MDA-MB-468): 18%; inhibition of growth at 10 µM (A549): 16%; inhibition of growth at 10 µM (MDA-MB-435): < 10%; inhibition of growth at 10 µM (HOP-62): < 10%; inhibition of growth at 10 µM (NCI-H460): < 10%; inhibition of growth at 10 µM (NCI-H23): 11%; inhibition of growth at 10 µM (SNB-19): < 10%; inhibition of growth at 10 µM (UACC-62): 16%; inhibition of growth at 10 µM (SK-MEL-5): 13%; inhibition of growth at 10 µM (BT-549): < 10%; inhibition of growth at 10 µM (PC-3): 10%; inhibition of growth at 10 µM [1]: 16%; inhibition of growth at 10 µM (LOX IMVI): 11%; inhibition of growth at 10 µM (SN12C): < 10%; inhibition of growth at 10 µM (UACC-257): < 10%; inhibition of growth at 10 µM (OVCAR-5): < 10%
